Experimental data taken from patent US20230183750A1, “HDR ENHANCERS” (OXFORD GENETICS LIMITED, priority 2020, published 2023).

Key:
[1] = tested on: HEK293 reporter cell line; assay: CRISPR/Cas9-based HDR assay (wtCas9 RNP, ssOligo donor, EGFP positive cells by FACS); type: cell-based, human; settings: for HDR efficiency, single small molecule (FIG. 4): Example 4, first set of experiments, compared to no compound; for HDR efficiency in the initial screen with wtCas9: fold change compared to Cas9 alone, ≥20% increase (fold change ≥1.2) = positive influencer; for optimal concentration selected for further experiments: from the HDR dose dependency experiment; for dose dependency of HDR efficiency (FIG. 3): three concentrations (low, medium, high) per inhibitor; for concentration with the highest HDR efficiency: tested at 5, 10, 20 μM
Procedure: More specifically, an HDR assay using a HEK reporter cell line containing truncated EGFP may be used. These cells may be transfected with a transfection complex containing the CRISPR endonuclease and a donor sequence. Cas9 RNPs may be prepared by following the manufacturers' guidelines. The transfection complex may be prepared by adding Cas9 RNP or Cas9 nickase RNP, along with ssOligo donor and lipofectamine 2000 in Optimem. Reagents should be mixed well and incubated for 20 mins. After 20 mins, 50 μl of transfection complex (at an optimal concentration—see the Examples herein) may be transferred in a 96 well plate and 50 μl HEK293 reporter cell line suspension (9×10^5 cells/ml) added followed by 50 μl of cell culture medium containing appropriate concentration(s) of inhibitor(s). Cells may be incubated at 37° C. in a CO2 incubator for 24 hours and then inhibitor-containing media should be replaced with fresh media without inhibitor. Cells are then further incubated for 48 hours. After 48 hours, cells may be trypsinized and resuspended in PBS containing 10% FBS. Samples may be run on FACS and the percentage of EGFP in the population measured. Presence of EGFP directly correlates with HDR efficiency.
To investigate whether a knock-in truncated in HEK293 reporter cell line could be corrected by homology dependent repair, a CRISPR/Cas9-based HDR assay was used. We used ssODN as a donor template to correct the EGFP sequence and to restore functionality as ssODNs are known to be more efficient compared to the double-stranded donor for HDR based DNA repair. Briefly, cells were transfected with a wtCas9 ribonucleoprotein complex along with an oligo donor for restoring EGFP functionality. Cells were analysed by FACS 72 hours post-transfection (FIGS. 2A and 2B).
To identify the small molecules which would increases the HDR efficiency, we carried out experiments using the engineered HEK293 reporter cell line, ss-donor and wtCas9 in the presence of the inhibitors identified in Example 2. Briefly, in vitro reconstituted wtCas9 RNP with gRNA-X1 was transfected into the cells along with ssOligo donor (50 nM) in presence of the inhibitors. Inhibitor containing media was replaced with fresh media after 24 hours and cells were further incubated for 48 hours. After 48 hours cells were trypsinized and resuspended in 10% FBS containing PBS and analysed by FACS.
To understand whether increase in HDR is related to dose response, we carried out the HDR assay using three different concentrations of selected inhibitors as shown in the table below.
To investigate whether HDR efficiency would increase further by using the top hit small molecule combinations, we performed experiments using small molecule combinations for wtCas9. These combinations were selected using Design of Experiment (DoE) software. These combination experiments were carried out in 2 sets: the first set was performed in the absence of NU7441 (a known HDR enhancer); and the second set was performed in the presence of NU7441. […] In the second set of experiments, in the presence of NU7441, further increases (˜2fold) in HDR efficiency were observed compared to no NU7441 (FIG. 4). […]

HEK reporter cell line = assay: cell-viability assay using alamar blue reagent; type: cell-based, human; settings: 72 hours
Procedure: To investigate the effect of this library on HDR efficiency and to identify novel molecules which would increase the HDR mediated gene editing efficiency, first we carried out a cell-viability assay using the HEK reporter cell line and alamar blue reagent. The experiment was performed to rule out any toxicity associated with the small molecule library. Briefly, 3 different concentration of inhibitors (0.1 μM, 1 μM and 10 μM) were added in the cells in a 96 well plate format and plates were incubated for 72 hours. After 72 hours, the media were replaced with alamar blue containing media and the plates were further incubated for 3 hours and then read on a Fluorstar omega plate reader. The table gives the results obtained with the subsequently-selected inhibitors, together with a range of other potential inhibitors.

Compound | HDR efficiency, single small molecule (FIG. 4) ([1]; wtCas9) | HDR efficiency at high concentration (FIG. 3) ([1]; concentration of 0.2 μM, wtCas9) | HDR efficiency in the initial screen with wtCas9 [1] | optimal concentration selected for further experiments ([1]; wtCas9) [µM] | % survival (HEK reporter cell line; 0.1 μM inhibitor) [%] | % survival (HEK reporter cell line; 1 μM inhibitor) [%] | % survival (HEK reporter cell line; 10 μM inhibitor) [%] | further increase in HDR efficiency in the presence of NU7441 compared to no NU7441 (FIG. 4) ([1]; Example 4, second set of experiments, wtCas9) [fold] | HDR efficiency at high concentration (FIG. 3) ([1]; concentration of 2 μM, wtCas9) | dose dependency of HDR efficiency (FIG. 3) ([1]; wtCas9) | concentration with the highest HDR efficiency ([1]; wtCas9) [µM]
O=C(Nc1c[nH]nc1-c1nc2cc(CN3CCOCC3)ccc2[nH]1)NC1CC1 [AT9283] | increase in HDR efficiency | moderated decreases in HDR efficiency | increase the HDR efficiency | 0.05 | 81.49 ± 3.59 | 69.69 ± 1.2 | 7.1 ± 0.06 | – | – | – | –
Cc1cc(CN2CCN(c3c(Br)cnc4nc(-c5ccc(N6CCN(C)CC6)cc5)[nH]c34)CC2)no1 [CCT137690] | – | – | – | – | 105.48 ± 3.94 | 63.37 ± 2.12 | −0.08 ± 0.1 | – | – | – | –
O=c1cc(N2CCOCC2)oc2c1ccc1ccccc12 [NU7026] | – | – | increase the HDR efficiency | – | 100.08 ± 4.01 | 100.14 ± 4.13 | 83.17 ± 1.44 | – | – | – | –
O=c1cc(N2CCOCC2)oc2c(-c3cccc4c3sc3ccccc34)cccc12 [NU7441] | increase in HDR efficiency | – | increase the HDR efficiency | 1 | 103.58 ± 4.44 | 88.88 ± 3.55 | 22.95 ± 0.98 | ~2 | moderate increases | highest HDR efficiency | –
O=C([C@H](Cc1cccc(C(F)(F)F)c1)NS(=O)(=O)c1cc(F)c2c(c1)CCNC2)N1CCCC1 [S-PFI-2] | increase in HDR efficiency | – | increase the HDR efficiency | 20 | 99.98 ± 3.25 | 115.11 ± 2.47 | 94.25 ± 8.54 | – | – | dose-dependent increases in HDR efficiency | 20
O=C1NC(=O)/C(=C/c2cccc(C(F)(F)F)c2)S1 [SMI-4a] | increase in HDR efficiency | – | increase the HDR efficiency | 20 | 105.2 ± 0.07 | 103.18 ± 5.38 | 99.85 ± 1.22 | – | – | dose-dependent increases in HDR efficiency | 20
CCS(=O)(=O)c1cccc(-c2cc(C(=O)NC3CCN(C)CC3)c(C)c3[nH]c4ncc(C)cc4c23)c1 [TAK-901] | – | – | – | – | 88.9 ± 1.18 | 36.24 ± 0.88 | 5.65 ± 0.08 | – | – | – | –
